From PubChem BioAssay AID686998 (Broad Institute, 2013)
Several values for one entry are separate records, joined by “and”; a condition that tells them apart may be missing. Equal values may be shown once. Results filed as inconclusive are left out. Activity calls are given as the source filed them.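 The calls were made as follows: active = falling signal with fitted half-maximal potency no higher than twice the top valid tested dose; inconclusive = poor fit quality, or flat fit spanning -70% to -30%; inactive = potency over limit, rising signal, or flat fit inside 30%.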

test system: Cryptococcus neoformans growth, Alamar Blue, 24 h; experiment: Cryptococcus neoformans growth inhibition, dose response, Alamar Blue, cherry-picks (AID 686998)

Compared with `COc1ccc(CN(C)C[C@@H]2Oc3ccc(NC(=O)C4CC4)cc3C(=O)N([C@@H](C)CO)C[C@H]2C)cc1`, `CC(C)NC(=O)Nc1ccc2c(c1)C(=O)N([C@@H](C)CO)C[C@@H](C)[C@@H](CN(C)C(=O)NC1CCCCC1)OCCCC[C@H](C)O2` is lower in IC50: 43.2 µM for the first, less than 0.26 µM for the second. The second is the more potent here.

Compared with `Cc1cccc(-c2ccc([C@@H]3[C@@H](CO)N4CCCCN(S(=O)(=O)c5ccccc5C)C[C@@H]34)cc2)c1`, `CCOC(=O)c1c(-c2ccc(-c3ccccc3)cc2)csc1NC(=O)CNCCN(C)C` is 5.7-fold higher in IC50: 2.62 µM for the first, 15 µM for the second.

First: COC(=O)C1=C(C)N(Cc2ccc(Cl)cc2)C(=S)NC1c1ccc(Br)cc1 (centres undefined)
Second: COC(=O)C1=C(C)N(Cc2ccc(Cl)cc2)C(=S)NC1c1ccc(OC)cc1 (centres undefined)
The IC50 of the first is 1.5-fold lower: 14.7 µM for the first, 22.6 µM for the second. The first is the more potent here.

`COC(=O)C1=C(C)N(Cc2ccc(Br)cc2)C(=S)NC1c1ccccc1` (centres undefined) and `COC(=O)C1=C(C)N(Cc2ccccc2)C(=S)N[C@H]1c1cccc(F)c1` are within 1.5-fold of each other in IC50: 13.1 µM for the first, 13.7 µM for the second.

Going from `COC(=O)C1=C(C)N(Cc2ccccc2)C(=S)NC1c1cccc(OC)c1` (centres undefined) to `CC(NC(=O)COc1ccccc1C(C)(C)C)c1ccccc1` (centres undefined), the IC50 falls from 32.5 µM to 3.83 µM (8.5-fold).

`O=C(C[C@@H]1CC[C@@H]2[C@H](COC[C@@H](O)CN2C(=O)Nc2ccc(Cl)cc2)O1)NC1Cc2ccccc2C1` and `O=C(NC(=S)NCC1COc2ccccc2O1)c1ccc(Cl)cc1` (centres undefined) are within 1.5-fold of each other in IC50: 6.79 µM for the first, 6.31 µM for the second.

First: Cc1c(C(=O)NC(=S)Nc2ccc(N3CCOCC3)cc2)cccc1[N+](=O)[O-]
Second: O=C(NC(=S)Nc1ccccc1N1CCOCC1)c1ccc(Br)cc1
The IC50 of the first is 5.6-fold higher: 34.7 µM for the first, 6.23 µM for the second.

In the case of `COc1cccc(NC(=O)CN2CCN(S(=O)(=O)c3ccc(C(C)C)cc3)CC2)c1`, the IC50 is reported as > 70 µM (inactive).
`CNC(=O)CN(c1ccc(OC)cc1)S(=O)(=O)c1ccc(F)cc1` was tested, and the IC50 was > 70 µM (inactive).
With `COc1ccc(NC(=O)c2cn(C)c(=O)c3cc(OC)c(OC)cc23)c(OC)c1` the IC50 was > 70 µM (inactive).
With `COC(=O)C1=C(C)N(Cc2ccc(Cl)cc2)C(=S)NC1c1cccc(OC)c1` (centres undefined) the IC50 was 6.55 µM and 8.91 µM.
In the case of `COC(=O)C1=C(C)N(CC(C)C)C(=S)NC1c1ccc(-c2ccccc2)cc1` (centres undefined), the IC50 is reported as 3.78 µM and 3.99 µM.
